Assays:
Type in all cases: in vivo
[1] = tested on: Tomato Late Blight organism Phytophthora infestans; assay: whole plant or invertebrate
[2] = tested on: Grape Downy Mildew organism Plasmopara viticola; assay: Grape Downy Mildew control, detached grape leaves; details: held 7 to 9 days after 2 days incubation
Experimental: The compounds of the invention were tested for the control of the Grape Downy Mildew organism Plasmopara viticola. Detached leaves, between 70 mm and 85 mm in diameter, 7-week-old Vitis vinifera cultivar Emperor grape seedlings were used as hosts. The leaves were sprayed with a 250-ppm solution of the test compound in acetone. The sprayed leaves were dried, inoculated with a spore suspension of the organism, placed in a humid environmental chamber and incubated at 66° F. to 68° F. and about 100% relative humidity. After incubation for 2 days, the plants were then held in a greenhouse 7 to 9 days; then the amount of disease control was determined. The percent disease control provided by a given test compound was based on the percent disease reduction relative to untreated check plants.

[3] = tested on: Celery Late Blight organism Septoria apii; assay: whole plant or invertebrate
[4] = tested on: Tomato Early Blight organism Alternaria solani conidia; assay: Tomato Early Blight control, tomato seedlings; details: inoculated 1 day later, about 12 days
Experimental: Compounds of the invention were tested for the control of the Tomato Early Blight organism Alternaria solani conidia. Tomato (variety Bonny Best) seedlings of 6- to 7-weeks old were used. The tomato plants were sprayed with a 250-ppm solution of the test compound in an acetone-and-water solution containing a small amount of a nonionic emulsifier. The sprayed plants were inoculated 1 day later with the organism, placed in the environmental chamber and incubated at 66° F. to 68° F. and 100% relative humidity for 24 hours. Following the incubation, the plants were maintained in a greenhouse for about 12 days. Percent disease control was based on the percent disease development on untreated check plants.

[5] = tested on: Rice Blast organism Piricularia oryzae; assay: whole plant or invertebrate
Uromyces phaseoli tipica = assay: Leaf Rust (Bean Rust) control, pinto beans; details: about 14 days
Experimental: The Leaf Rust test was made using pinto beans. The pathogen was Uromyces phaseoli tipica. The pinto bean plants were sprayed with a 250-ppm solution of the test compound in an acetone-water mixture containing a nonionic emulsifier. The treated plants were inoculated thereafter with the pathogen and then incubated in an environmental chamber for approximately 20 hours at 100% relative humidity and a temperature of 68° F. to 70° F. The plants were then removed from the chamber, allowed to dry, and then maintained in a greenhouse at a 60% to 80% relative humidity. The rate of infection on the leaves was made after about 14 days. The percent disease control provided by a given test compound was based on the percent disease reduction relative to untreated check plants.

[6] = tested on: Bean Powdery Mildew organism Erysiphe polygoni; assay: Bean Powdery Mildew control, seedling bean plants; details: inoculated 1 day later, 10 days
Experimental: The compounds of the invention were tested for the control of the Bean Powdery Mildew organism Erysiphe polygoni. Seedling bean plants were sprayed with a 250-ppm solution of the test compound in acetone, water and a nonionic emulsifier. The sprayed plants were then inoculated 1 day later with the organism. The plants were maintained for 10 days at temperatures of 68° F. at night with daytime temperatures of 72° F. to 80° F.; relative humidity was maintained at 40% to 60%. The percent disease control provided by a given test compound was based on the percent disease reduction relative to the untreated check plants.

CCCN(CC(=O)Nc1c(Cl)cc(Cl)cc1Cl)C(=O)c1cccnc1 [Compound 1, N-(2,4,6-trichlorophenyl), N'-(n-propyl), N'-(3-pyridylcarbonyl) glycinamide]
activity at 250 ppm ([1]; Phytophthora infestans, read-out: Fungicidal Activity % Control TLB): 0% | activity at 250 ppm ([2]; Plasmopara viticola, in Vitis vinifera, read-out: Fungicidal Activity % Control GDM): 3% | activity at 250 ppm ([3]; 336 h, read-out: Fungicidal Activity % Control CLB): 50% | activity at 250 ppm ([4]; Alternaria solani, read-out: Fungicidal Activity % Control TEB): 85% | activity at 625 ppm ([5]; Pyricularia oryzae, read-out: Fungicidal Activity % Control RB): 0% | activity at 250 ppm (Uromyces phaseoli tipica; Uromyces phaseoli, 336 h, read-out: Fungicidal Activity % Control BR): 4% | activity at 250 ppm ([6]; Erysiphe polygoni, read-out: Fungicidal Activity % Control BPM): 100%

CCCN(CC(=O)Nc1c(C)cccc1C)C(=O)c1cccnc1 [Compound 2, N-(2,6-dimethylphenyl)-N'-(n-propyl), N'-(3-pyridylcarbonyl) glycinamide]
Fungicidal Activity % Control TLB ([1]; 250 ppm, tomato, inoculated 1 day later, approximately 7 days): 10% | Fungicidal Activity % Control GDM ([2]; 250 ppm, detached Vitis vinifera leaves): 7% | Fungicidal Activity % Control CLB ([3]; 250 ppm, celery (Utah), approximately 14 days): 58% | Fungicidal Activity % Control TEB ([4]; 250 ppm): 22% | Fungicidal Activity % Control RB ([5]; 625 ppm, rice (Calrose M-9), inoculated 1 day later, about 12 to 16 days): 0% | Fungicidal Activity % Control BR (Uromyces phaseoli tipica; 250 ppm): 0% | Fungicidal Activity % Control BPM ([6]; 250 ppm): 53%

Source: patent US4661494A (priority 1985, dated 1987)
